One test has as its target T1, HuBChE (Homo sapiens, UniProt P06276).
T1 construct: gene BCHE; native human enzyme, commercial (Sigma Chemical Co.)
As to the kind of experiment: Ellman assay, […] nm; global fit of hydrolysis inhibition and carbamoylation. The format is biochemical. Conditions: read-out: HuBChE (BTCh).

Another test addresses T2, DmAChE (Drosophila melanogaster, UniProt P07140).
T2 construct: gene Ace
The test is described as above. In kind it is biochemical. Conditions: read-out: DmAChE (ATCh).

The values below come from article PMC2739159, “Evidence for inhibition of cholinesterases in insect and mammalian nervous systems by the insect repellent deet” (BMC Biology, 2009).

`CCN(CC)C(=O)c1cccc(C)c1` [deet, N,N-Diethyl-3-methylbenzamide]: the Ki on HuBChE was 370 ± 50 µM; on DmAChE, 1020 ± 30 µM.
